In doi:10.1101/2021.10.07.463234v2 (biorxiv, 2021):
Counter-ions that a name gives are not always drawn.

Molecular target: SARS-CoV-2 Mac1 (Severe acute respiratory syndrome coronavirus 2, UniProt P0DTD1)
Experiment: biochemical
Details: for inhibition at 100 µM: read-out: %inhibition; for %inhibition: 100 µM, inhibitor

| Structure (SMILES) | inhibition at 100 µM [%] | %inhibition [%] |
| --- | --- | --- |
| COc1ccccc1OCC(O)CO (centres unmarked) [Guaifenesin] | 33.3 | – |
| N=C(N)N/N=C/c1c(Cl)cccc1Cl [Guanabenz Acetate] | 0 | – |
| N=C(N)NCCN1CCCCCCC1 [Guanethidine Monosulfate] | – | 5.593 |
| N=C(N)NCCN1CCCCCCC1 [Guanethidine Sulfate] | – | 0 |
| N=C(N)NC(=O)Cc1c(Cl)cccc1Cl [Guanfacine Hydrochloride] | 0 | – |
| N=C(N)N [Guanidine HCl] | 14 | – |
| CC1(C)O[C@@H]2C[C@H]3[C@@H]4CCC5=CC(=O)CC[C@]5(C)[C@@]4(F)[C@@H](O)C[C@]3(C)[C@]2(C(=O)CCl)O1 [Halcinonide] | 25.9 | – |
| CCC(=O)O[C@]1(C(=O)CCl)[C@@H](C)C[C@H]2[C@@H]3C[C@H](F)C4=CC(=O)C=C[C@]4(C)[C@@]3(F)[C@@H](O)C[C@@]21C [Halobetasol Propionate] | 24.3 | – |
| FC(F)(F)C(Cl)Br (centres unmarked) [Halothane] | 0 | – |
| Oc1c(Cl)cc(Cl)c(Cl)c1Cc1c(O)c(Cl)cc(Cl)c1Cl [Hexachlorophene] | 0 | – |
| C[N+](C)(C)CCCCCC[N+](C)(C)C [Hexamethonium?Dibromide] | 0 | – |
| CC[C@H](c1ccc(O)cc1)[C@@H](CC)c1ccc(O)cc1 [Hexestrol] | 0 | – |
| CCCCCCc1ccc(O)cc1O [Hexylresorcinol] | 0 | – |
| NCCc1c[nH]cn1 [Histamine 2HCl] | – | 6.627 |
| NCCc1c[nH]cn1 [Histamine Phosphate] | – | 0 |
| C[N+]1(C)[C@@H]2CC[C@H]1C[C@@H](OC(=O)C(O)c1ccccc1)C2 (some centres unmarked) [Homatropine Methylbromide] | 0 | – |
| NNc1nncc2ccccc12 [Hydralazine HCl] | 6.58 | – |
| CC(=O)OCC(=O)[C@@]1(O)CC[C@H]2[C@@H]3CCC4=CC(=O)CC[C@]4(C)[C@H]3[C@@H](O)C[C@@]21C [Hydrocortisone acetate] | 0 | – |
| C[C@]12CCC(=O)C=C1CC[C@@H]1[C@@H]2[C@@H](O)C[C@@]2(C)[C@H]1CC[C@]2(O)C(=O)CO [Hydrocortisone] | 5.07 | – |
| CC[C@H]1CN2CC[C@H]1C[C@@H]2[C@@H](O)c1ccnc2ccc(OC)cc12 [Hydroquinidine] | 4.48 | – |

| Structure (SMILES) | inhibition at 100 µM [%] | %inhibition [%] |
| --- | --- | --- |
| Oc1ccc(O)cc1 [Hydroquinone] | 7.86 | – |
| CCN(CCO)CCCC(C)Nc1ccnc2cc(Cl)ccc12 (centres unmarked) [Hydroxychloroquine Sulfate] | – | 0 |
| CC(O)c1ccc(S(=O)(=O)NC(=O)NC2CCCCC2)cc1 (centres unmarked) [Hydroxyhexamide] | 28 | – |
| CCCCCC(=O)O[C@]1(C(C)=O)CC[C@H]2[C@@H]3CCC4=CC(=O)CC[C@]4(C)[C@H]3CC[C@@]21C [Hydroxyprogesterone caproate] | 8.48 | – |
| NC(=O)NO [Hydroxyurea] | 20.8 | – |
| OCCOCCN1CCN(C(c2ccccc2)c2ccc(Cl)cc2)CC1 (centres unmarked) [Hydroxyzine 2HCl] | 11.4 | – |
| CN[C@H]1C[C@@H](N)[C@H](O)[C@@H](O[C@@H]2O[C@H](CO)[C@H](O)[C@@H]3OC4(O[C@H]23)O[C@H]([C@@H](N)CO)[C@H](O)[C@H](O)[C@H]4O)[C@@H]1O (some centres unmarked) [Hygromycin B] | 0 | – |
| CCCCCN(C)CCC(O)(P(=O)(O)O)P(=O)(O)O [Ibandronate sodium] | 4.37 | – |
| C=CC(=O)N1CCC[C@@H](n2nc(-c3ccc(Oc4ccccc4)cc3)c3c(N)ncnc32)C1 [Ibrutinib (PCI-32765)] | 6.43 | – |
| CC(C)C(=O)c1c(C(C)C)nn2ccccc12 [Ibudilast] | 0 | – |
| CC(C)Cc1ccc(C(C)C(=O)O)cc1 (centres unmarked) [Ibuprofen] | 0 | – |
| CCCCCCCN(CC)CCCC(O)c1ccc(NS(C)(=O)=O)cc1 (centres unmarked) [Ibutilide Fumarate] | 0 | – |
| C#Cc1cccc(Nc2ncnc3cc4c(cc23)OCCOCCOCCO4)c1 [Icotinib] | 15.2 | – |
| COc1cc(C(=O)O)ccc1NC(=O)[C@@H]1N[C@@H](CC(C)(C)C)[C@](C#N)(c2ccc(Cl)cc2F)[C@H]1c1cccc(Cl)c1F [Idasanutlin (RG-7388)] | 0 | – |
| COC1=C(OC)C(=O)C(CCCCCCCCCCO)=C(C)C1=O [Idebenone] | 7.11 | – |
| CC[C@H](Nc1ncnc2[nH]cnc12)c1nc2cccc(F)c2c(=O)n1-c1ccccc1 [Idelalisib (CAL-101, GS-1101)] | 0 | – |
| O=c1[nH]c(=O)n([C@H]2C[C@H](O)[C@@H](CO)O2)cc1I [Idoxuridine] | 44.1 | – |
| O=C1C2CC3CC1CC(O)(C3)C2 [Idramantone] | 3.83 | – |
| CC(C(O)c1ccc(O)cc1)N1CCC(Cc2ccccc2)CC1 (centres unmarked) [Ifenprodil Tartrate] | 34.6 | – |
| O=P1(NCCCl)OCCCN1CCCl (centres unmarked) [Ifosfamide] | 10.6 | – |

| Structure (SMILES) | inhibition at 100 µM [%] | %inhibition [%] |
| --- | --- | --- |
| CS(=O)(=O)Nc1cc2occ(NC=O)c(=O)c2cc1Oc1ccccc1 [Iguratimod] | 4.14 | – |
| CNC(=O)[C@H](Cc1c[nH]c2ccccc12)NC(=O)[C@@H](CC(=O)NO)CC(C)C [Ilomastat (GM6001, Galardin)] | 21 | – |
| COc1cc(C(C)=O)ccc1OCCCN1CCC(c2noc3cc(F)ccc23)CC1 [Iloperidone] | 0 | – |
| Cc1nccn1CCC(C(N)=O)(c1ccccc1)c1ccccc1 [Imidafenacin] | 8.33 | – |
| CCOC(=O)[C@H](CCc1ccccc1)N[C@@H](C)C(=O)N1C(=O)N(C)C[C@H]1C(=O)O [Imidapril HCl] | 0 | – |
| C[C@@H](O)[C@H]1C(=O)N2C(C(=O)O)=C(SCCNC=N)C[C@H]12 [Imipenem] | 9.79 | – |
| CN(C)CCCN1c2ccccc2CCc2ccccc21 [Imipramine HCl] | 2.2 | – |
| CC(C)Cn1cnc2c(N)nc3ccccc3c21 [Imiquimod] | 26.3 | – |
| CCc1cc2c(cc1CC)CC(NC[C@H](O)c1ccc(O)c3[nH]c(=O)ccc13)C2 [Indacaterol Maleate] | – | 2.994 |
| CCc1cc2c(cc1CC)CC(NC[C@H](O)c1ccc(O)c3[nH]c(=O)ccc13)C2 [Indacaterol] | – | 1.05 |
| CC1Cc2ccccc2N1NC(=O)c1ccc(Cl)c(S(N)(=O)=O)c1 (centres unmarked) [Indapamide] | 36.3 | – |
| O=C1/C(=C2\Nc3ccc(S(=O)(=O)O)cc3C2=O)Nc2ccc(S(=O)(=O)O)cc21 [Indigo carmine] | 39.3 | – |
| O=C1/C(=C2\Nc3ccccc3C2=O)Nc2ccccc21 [Indigo] | 9.76 | – |
| COc1ccc2c(c1)c(CC(=O)O)c(C)n2C(=O)c1ccc(Cl)cc1 [Indometacin Sodium] | – | 0 |
| COc1ccc2c(c1)c(CC(=O)O)c(C)n2C(=O)c1ccc(Cl)cc1 [Indomethacin] | – | 39.29 |
| NC(=O)c1ccc(I)c([N+](=O)[O-])c1 [Iniparib (BSI-201)] | 31 | – |
| O=c1[nH]cnc2c1ncn2[C@@H]1O[C@H](CO)[C@@H](O)[C@H]1O [Inosine] | 0 | – |
| CC(=O)N(CC(O)CN(C(C)=O)c1c(I)c(C(=O)NC[C@@H](O)CO)c(I)c(C(=O)NC[C@@H](O)CO)c1I)c1c(I)c(C(=O)NC[C@@H](O)CO)c(I)c(C(=O)NC[C@@H](O)CO)c1I [Iodixanol] | 0.797 | – |
| C[C@H](O)C(=O)Nc1c(I)c(C(=O)NC(CO)CO)c(I)c(C(=O)NC(CO)CO)c1I [Iopamidol] | 0 | – |
